Test results published in patent US9522882B2, “Strigolactam derivatives as plant growth regulating compounds” (Syngenta Participations AG, priority 2011, dated 2016).

Legend:
[1] = test system: Orobanche cumana Wallr. seeds; assay: Orobanche cumana seed germination test on glass fiber filter paper in petri dishes; type: in vivo; details: mean, n = 5 × 100 seeds; for Germination %* at concentration of 0.001 mg I^−1 / Germination %* at concentration of 0.01 mg I^−1 / Germination %* at concentration of 0.1 mg I^−1: preconditioned Orobanche cumana seeds of lot IN153, race F
Procedure: The effect of compounds of Formula (I) on germination of Orobanche cumana Wallr. seeds was evaluated on glass fiber filter paper (GFFP) in petri dishes. Seeds were preconditioned at moisture and suitable temperature to become responsive to the specific chemical germination stimulants.
Test compounds were dissolved in DMSO (10 000 mg l^−1) and stored at room temperature in a desiccators with desiccants. The stock solutions were dissolved with deionised water to the appropriate final test concentration.
Seeds of O. cumana race ‘F’ were collected from sunflower fields in Manzanilla (Seville, Spain) in 2006 (seed lot 1N146) and 2008 (seed lot 1N153) and stored at room temperature. To separate seeds from heavy organic debris, a modified sucrose floatation technique as described by Hartman & Tanimonure (Plant Disease (1991), 75, p. 494) was applied. Seeds were filled into a separation funnel and stirred in water. When seeds floated to the surface, the water fraction containing heavy debris was discarded. Seeds were re-suspended in 2.5M sucrose solution (specific gravity of 1.20) and heavy debris was allowed to settle down for 60 min. After removing debris, seeds were disinfected in 1% sodium hypochlorite solution and 0.025% (v/v) Tween 20 for 2 min. The seeds were decanted onto two layers of cheesecloth, rinsed with sterile deionised water and re-suspended in sterile deionised water. Two ml of the seed suspension containing approximately 150-400 seeds were spread evenly on two layers of sterile glass fiber filter paper disc ([…]) in Petri dishes (Ø9 cm). After wetting the discs with 3 ml sterile deionised water, petri dishes were sealed with parafilm. Seeds were incubated for 10 days at 20° C. in the dark for seed conditioning. The upper disc with conditioned seeds was briefly dried, transferred to a petri dish lined with a dry GFFP disc, and wetted with 6 ml of the appropriate test solution. The compounds of Formula (I) were tested at concentrations of 0.001, 0.01, and 0.1 mg l^−1. The strigolactone analogue GR24 (commercially available as a mixture of isomers) was included as positive control and 0.001% DMSO as negative control. All treatments were tested in five replicates. Seeds were re-incubated at 20° C. in the dark and examined for germination 10 days later. The radicles of germinated seeds were stained for 5 min with blue ink (MIGROS, Switzerland) in 5% acetic acid according to Long et al. (Seed Science Research (2008), 18, p. 125). After staining, seeds were scanned using a flatbed scanner with an optical resolution of 1200 dpi (PULSTEK, OpticPro ST28) or photographed using a camera stand mounted with a digital SLR camera (Canon EOS 5D). Germination of 100 seeds per replicate was evaluated on digital images. Seeds were considered germinated when the radicle protruded from the seed coat.

[2] = test system: Brassica oleracea cv Botrytis; assay: Standard paper germination test for Brassica (tropical cauliflower seeds, 20° C. in the dark); type: in vivo; details: tropical cauliflower 3C150 (seed batch 11B295), 25 μM; for Gmax (total germination): DMSO treatment = 31.3%
Procedure: The effect of compounds of Formula (I) on the germination of Brassica oleracea cv Botrytis or common cauliflower was tested on tropical types. […] Germination of a sensitive tropical type at 20° is stimulated by the presence of light.
The tropical seed batch tested was part of seed batches produced as basic seed (for maintenance of the parental line) and were processed accordingly.
Germination was assessed using the standard paper germination test for Brassica: Fifty seeds were placed on blue germination paper, which was moistened with the appropriate solutions, in closed oblong germination boxes. Each condition was tested in duplo. Germination boxes were placed in controlled germination cabinets with the appropriate temperature and light conditions. Germination of seeds was counted at regular intervals. Seeds were considered to be germinated when the radical had protruded the testa and endosperm (radical size approximately 1 mm). Germination kinetics were analyzed using the Germinator analysis tool in order to obtain the parameters: Gmax (maximum germination) and t50 (time needed to reach 50% of the Gmax). The Germinator analysis tool is an add-in in for excel developed by the University of Wageningen: Joosen, R. V. L., J. Kodde, et al. (2010). (“Germinator: A Software Package for High-Throughput Scoring and Curve Fitting of Arabidopsis Seed Germination.” The Plant Journal 62(1): 148-159.)
Test compounds were dissolved in DMSO at a concentration of 50 mM and stored at −20° C. The strigolactone analogue GR24 (commercially available as a racemic mixture of 2 diastereoisomers, referred to as “synthetic strigolactone GR-24” and first prepared by Johnson A. W. & all, Journal of the Chemical Society, Perkin Transactions 1, 1981, page 1734-1743) was included as positive control. Germination solutions were prepared by diluting the stock solutions with demineralized water till 25 μM. As control solutions demineralized water and a 0.05% v/v DMSO solution were used.

[3] = Table 5, preconditioned seeds of lot IN153, raceF, aqueous control (0.001% DMSO) = 0.2% germination
[4] = Table 3, preconditioned seeds of lot IN146, raceF, aqueous control (0.001% DMSO) = 0% germination
[5] = aqueous control (0.001% DMSO) = 0.2% germination
[6] = Table 6, preconditioned seeds of lot IN153, raceF, aqueous control (0.001% DMSO) = 0.8% germination
[7] = Table 4, preconditioned seeds of lot IN146, raceF, aqueous control (0.001% DMSO) = 0% germination

## CC#Cc1cccc2c1C[C@@H]1/C(=C\O[C@H]3C=C(C)C(=O)O3)C(=O)N[C@H]21 (relative stereo) [Compound A4]
[1]; [3]
  Germination % at concentration of 0.001 mg I^−1: 97.6%
  Germination % at concentration of 0.01 mg I^−1: 94.4%
  Germination % at concentration of 0.1 mg I^−1: 98.2%

## C#Cc1cccc2c1C[C@@H]1/C(=C\O[C@H]3C=C(C)C(=O)O3)C(=O)N[C@H]21 [Compound A2, (3E,3aR,8bS)-5-ethynyl-3-[(4-methyl-5-oxo-2H-furan-2-yl)oxymethylene]-1,3a,4,8b-tetrahydroindeno[1,2-b]pyrrol-2-one]
[1]; [4]
  Germination % at concentration of 0.001 mg I^−1: 85.8%
  Germination % at concentration of 0.01 mg I^−1: 82.0%
  Germination % at concentration of 0.1 mg I^−1: 86.2%

## CC1=CC(OC=C2C(=O)NC3c4cccc(-c5ccncc5)c4CC23)OC1=O (mixture of isomers) [Compound A10]
[1]; [5]
  Germination %* at concentration of 0.001 mg I^−1: 11.2%
  Germination %* at concentration of 0.01 mg I^−1: 18.0%
  Germination %* at concentration of 0.1 mg I^−1: 24.0%

## COCC#Cc1cccc2c1C[C@@H]1/C(=C\O[C@H]3C=C(C)C(=O)O3)C(=O)N[C@H]21 (relative stereo) [Compound A5]
[1]; [3]
  Germination % at concentration of 0.001 mg I^−1: 79.0%
  Germination % at concentration of 0.01 mg I^−1: 91.4%
  Germination % at concentration of 0.1 mg I^−1: 99.2%

## C=Cc1cccc2c1C[C@@H]1/C(=C\O[C@H]3C=C(C)C(=O)O3)C(=O)N[C@H]21 (relative stereo) [Compound A7]
[1]; [6]
  Germination % at concentration of 0.001 mg I^−1: 96.4%
  Germination % at concentration of 0.01 mg I^−1: 96.8%
  Germination % at concentration of 0.1 mg I^−1: 95.4%

## CC1=C[C@H](O/C=C2/C(=O)N[C@@H]3c4cccc(C#Cc5ccccc5)c4C[C@H]23)OC1=O (relative stereo) [Compound A6]
[1]; [5]
  Germination %* at concentration of 0.001 mg I^−1: 2.6%
  Germination %* at concentration of 0.01 mg I^−1: 40.2%
  Germination %* at concentration of 0.1 mg I^−1: 83.6%

## CC1=CC(OC=C2C(=O)NC3c4cccc(-c5nccs5)c4CC23)OC1=O (mixture of isomers) [Compound A12]
[1]; [5]
  Germination %* at concentration of 0.001 mg I^−1: 13.0%
  Germination %* at concentration of 0.01 mg I^−1: 7.0%
  Germination %* at concentration of 0.1 mg I^−1: 26.8%

## CC1=CC(OC=C2C(=O)NC3c4cccc(-c5cccnc5)c4CC23)OC1=O (mixture of isomers) [Compound A11]
[1]; [5]
  Germination %* at concentration of 0.001 mg I^−1: 30.0%
  Germination %* at concentration of 0.01 mg I^−1: 65.6%
  Germination %* at concentration of 0.1 mg I^−1: 90.8%

## CC1=CC(OC=C2C(=O)NC3c4cccc(-c5ccccc5)c4CC23)OC1=O (mixture of isomers) [Compound A9]
[1]; [5]
  Germination %* at concentration of 0.001 mg I^−1: 53.4%
  Germination %* at concentration of 0.01 mg I^−1: 84.4%
  Germination %* at concentration of 0.1 mg I^−1: 76.8%

## CC1=C[C@H](O/C=C2/C(=O)O[C@@H]3c4ccccc4C[C@H]23)OC1=O [GR24, reference compound]
[2]
  stimulation (extra germination compared to the DMSO treatment, expressed as percentage of the DMSO treatment): 140.0%
  Gmax (total germination): 73.0%
[1]; [3]
  Germination % at concentration of 0.001 mg I^−1: 88.6%
  Germination % at concentration of 0.01 mg I^−1: 96.0%
  Germination % at concentration of 0.1 mg I^−1: 93.8%
[1]; [6]
  Germination % at concentration of 0.001 mg I^−1: 79.8%
  Germination % at concentration of 0.01 mg I^−1: 93.2%
  Germination % at concentration of 0.1 mg I^−1: 96.8%
[1]; [5]
  Germination %* at concentration of 0.001 mg I^−1: 60.8%
  Germination %* at concentration of 0.01 mg I^−1: 83.2%
  Germination %* at concentration of 0.1 mg I^−1: 90.6%

## C=CCc1cccc2c1C[C@@H]1/C(=C\O[C@H]3C=C(C)C(=O)O3)C(=O)N[C@H]21 (relative stereo) [Compound A1, (3aR*,8bS*, 5′R*)-5-allyl-3-[1-(4-Methyl-5-oxo-2,5-dihydro-furan-2-yloxy)-meth-(E)-ylidene]-3,3a,4,8b-tetrahydro-1H-indeno[1,2-b]pyrrol-2-one]
[1]; [4]
  Germination % at concentration of 0.001 mg I^−1: 85.8%
  Germination % at concentration of 0.01 mg I^−1: 82.0%
  Germination % at concentration of 0.1 mg I^−1: 82.6%

## CC1=C[C@H](O/C=C2/C(=O)N[C@@H]3c4c(cccc4C4CC4)C[C@H]23)OC1=O [Compound A8, (3E,3aR,8bS)-8-cyclopropyl-3-[[(2R)-4-methyl-5-oxo-2H-furan-2-yl]oxymethylene]-1,3a,4,8b-tetrahydroindeno[1,2-b]pyrrol-2-one]
[1]; [5]
  Germination %* at concentration of 0.001 mg I^−1: 81.2%
  Germination %* at concentration of 0.01 mg I^−1: 88.5%
  Germination %* at concentration of 0.1 mg I^−1: 86.8%

## COC(=O)c1ccc2c(c1)C1NC(=O)/C(=C/O[C@H]3C=C(C)C(=O)O3)[C@H]1C2 (stereo in doubt) [Compound A3, methyl(3E,3aR,8bR)-3-[[(2R)-4-methyl-5-oxo-2H-furan-2-yl]oxymethylene]-2-oxo-1,3a,4,8b-tetrahydroindeno[1,2-b]pyrrole-7-carboxylate]
[2]
  stimulation (extra germination compared to the DMSO treatment, expressed as percentage of the DMSO treatment): 36.7%
  Gmax (total germination): 43.0%
[1]; [7]
  Germination % at concentration of 0.001 mg I^−1: 85.8%
  Germination % at concentration of 0.01 mg I^−1: 82.0%
  Germination % at concentration of 0.1 mg I^−1: 82.6%

## CC1=CC(OC=C2C(=O)NC3c4cccc(-c5ccco5)c4CC23)OC1=O (mixture of isomers) [Compound A13]
[1]; [5]
  Germination %* at concentration of 0.001 mg I^−1: 13.4%
  Germination %* at concentration of 0.01 mg I^−1: 66.4%
  Germination %* at concentration of 0.1 mg I^−1: 90.0%
